# According to patent publication US8034548B2, “Methods and materials for assessing prostate cancer therapies” (The Regents of the University of California, priority 2003, dated 2011):
# Assays:
# [1] = biological target: AR transcription complex on the promoters of PSA and KLK2 (Homo sapiens, UniProt P10275, T878A)
# Description: Soluble chromatin was prepared after formaldehyde crosslinking and sonication. Specific IgGs against AR, N—CoR, PolII, Ac—H3/4, SRC1, TIF2, AIB1, and PCAF were used to immunoprecipitate protein-bound DNA fragments.
# [2] = test system: LNCaP cells infected with the empty vector; assay: in vitro growth in low androgen concentrations, vector control cells; format: cell-based, human; conditions: failed to grow unless supplemented
# From the text: (§1) To determine if increased AR protein concentration plays a causal role in the HS-to-HR transition, we introduced an epitope-tagged wildtype AR cDNA by retrovirus infection into HS LNCaP human prostate cancer cells. A three-fold increase in AR levels in LNCaP-AR cells mimics the expression difference observed in the LNCaP HS/HR pair studied in the microarray experiment. To test whether increased AR expression causes the HS-to-HR transition, we designed two in vitro assays to mimic the clinical circumstances of HR disease. […] In contrast, LNCaP-AR cells grew in at least 80% lower concentrations of R1881.
# (§2) Details of typical in vitro and in vivo growth experiments are as follows: LNCaP (ATCC) and LAPC4 cells were maintained in Iscove's medium supplemented with 10% fetal bovine serum. […] In vivo tumorigenicity was measured by injection of 5×10^5 LAPC4 or 1×10^6 LNCaP cells in 100 μl of Matrigel (Collaborative Biomedical) subcutaneously into the flanks of intact or castrated male SCID mice. Tumor size was measured weekly in three dimensions using caliber as described.^26 AR knockdown was performed by infection of HR LAPC4 with shRNA AR lentivirus. Tumors which grew in castrated mice were explanted, and analyzed by flow cytometry for the percentage of GFP-positive cells. […]
# [3] = test system: LNCaP-AR cells; assay: Affymetrix U133A microarray of induced genes, AR-overexpressing cells; format: cell-based, human
# [4] = test system: LNCaP-AR cells; assay: in vitro growth in low androgen concentrations, AR-overexpressing cells; format: cell-based, human; conditions: compared with 100 pM needed by vector cells
# From the text: as §1, §2
# AR transcription complex on the promoters of PSA and KLK2, sequence (P10275 whole entry T878A, the tested form may be a part, one chain of several): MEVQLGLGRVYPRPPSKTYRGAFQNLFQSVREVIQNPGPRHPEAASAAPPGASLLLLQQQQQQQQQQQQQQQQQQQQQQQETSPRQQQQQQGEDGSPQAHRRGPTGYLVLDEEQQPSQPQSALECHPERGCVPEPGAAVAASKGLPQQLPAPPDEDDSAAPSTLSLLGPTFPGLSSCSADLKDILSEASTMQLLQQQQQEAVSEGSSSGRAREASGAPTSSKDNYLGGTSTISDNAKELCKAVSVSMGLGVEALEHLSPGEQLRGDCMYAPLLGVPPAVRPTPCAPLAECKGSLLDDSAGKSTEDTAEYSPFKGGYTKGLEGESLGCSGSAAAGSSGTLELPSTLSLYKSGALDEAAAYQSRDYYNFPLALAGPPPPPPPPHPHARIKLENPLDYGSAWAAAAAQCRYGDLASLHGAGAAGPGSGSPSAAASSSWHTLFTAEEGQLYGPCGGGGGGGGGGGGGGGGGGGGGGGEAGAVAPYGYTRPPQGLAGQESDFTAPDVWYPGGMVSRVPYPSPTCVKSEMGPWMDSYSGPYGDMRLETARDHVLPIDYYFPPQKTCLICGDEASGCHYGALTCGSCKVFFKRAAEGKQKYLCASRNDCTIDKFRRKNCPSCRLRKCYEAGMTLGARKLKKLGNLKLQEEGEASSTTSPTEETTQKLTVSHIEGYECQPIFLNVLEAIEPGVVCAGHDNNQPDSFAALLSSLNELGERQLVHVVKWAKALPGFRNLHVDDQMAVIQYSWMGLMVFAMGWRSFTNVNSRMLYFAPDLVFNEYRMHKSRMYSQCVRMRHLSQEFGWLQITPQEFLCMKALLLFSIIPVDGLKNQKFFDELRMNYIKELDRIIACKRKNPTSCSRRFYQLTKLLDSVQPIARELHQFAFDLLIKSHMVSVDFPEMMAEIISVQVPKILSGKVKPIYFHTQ
SMILES,recruitment of AR and polymerase II to PSA and KLK2 promoters [1],"R1881 supplement needed for growth in steroid-depleted, charcoal-stripped serum [2] [pM]",total number of androgen-regulated genes ([3]; increasing doses of R1881) [probe sets],lower concentration of R1881 in which cells grew [4],"subset of the total number of androgen-regulated genes induced ([3]; LNCaP-AR, 10 μM bicalutamide) [%]"
C[C@]1(O)CC[C@H]2[C@@H]3CCC4=CC(=O)CCC4=C3C=C[C@@]21C [R1881],AR and polymerase II were recruited to both promoters regardless of AR level,100,> 600,at least 80%,–
CC(O)(CS(=O)(=O)c1ccc(F)cc1)C(=O)Nc1ccc(C#N)c(C(F)(F)F)c1 (centres unmarked) [bicalutamide],–,–,–,–,< 10
